Literature values, collected in patent US20230080958A1, “METHODS OF TREATING PSEUDOBULBAR AFFECT AND OTHER EMOTIONAL DISTURBANCES” (Woolsey Pharmaceuticals, Inc., priority 2020, published 2023).

Legend:
[1] = 1-hydroxy (M3) metabolite, in vivo (Shibuya 2001)
[2] = test system: patients with sub-cortical vascular dementia

| half-life [1] | SMILES | emotional incontinence (compulsive laughing and/or crying) ([2]; Kamei publication and Japanese patent application 6-293643, three patients, no assessment or diagnosis of PBA) | wandering (primary outcome) ([2]; two patients with sub-cortical vascular dementia, open-label, no control group, concomitant medications (Kamei 1996)) |
| --- | --- | --- | --- |
| about 8 hours | O=S(=O)(c1cccc2c(O)nccc12)N1CCCNCC1 [M3] |  |  |
|  | O=S(=O)(c1cccc2cnccc12)N1CCCNCC1 [fasudil, hexahydro-1-(5-isoquinolinesulfonyl)-1H-1,4-diazepine] | improvements | mitigated wandering |
